Source: US20230374034A1, “NOVEL BICYCLIC COMPOUNDS” (PRISM BIOLAB CO., LTD., priority 2020, published 2023)
Like-named read-outs stand apart in the source and are kept apart here.

System: NICD (Notch intracellular domain) CSL-bla reporter in HeLa cells
Assay: Notch assay (CellSensor T-REx NICD CSL-bla HeLa beta-lactamase reporter; Method 1 / Method 2)
Assay type: cell-based
Conditions: Homo sapiens, 10 μM compound, read-out: inhibiton (%) at 10 μM
Excerpt: We used the CellSensor T-REx™ NICD CSL-bla HeLa cell line, which was engineered by lentiviral transduction of HeLa cells with a Notch response element driving beta-lactamase reporter gene expression (CSL-bla) along with DOX (doxycycline)-inducible NICD (Notch intracellular domain) constructs. Addition of DOX to these cells allows for regulated NICD transcription factor expression and subsequent beta-lactamase expression.
Specifically, the following protocol was used.
NOTCH ASSAY PROTOCOL (Method 2)
• 1. Add 40 nL/well of working concentration of 1000× compound to 384-well assay plate with Echo. • 2. Plate Cells: 35 μl/well of HeLa/T-REx™ NICD CSL-bla cells at 10^3 cells/well complete medium into 384-well plate. • 3. Add 5 μl 8× Doxycycline in Assay Medium to the treated wells, and 5 μl Assay Medium to the Untreated and cell free control wells. • 4. Incubate the assay plate in a humidified 37° C./5% CO2 incubator for 16-20 hours. • 5. Preparation of 6× LiveBLAzer™-FRET B/G Substrate (CCF4-AM) Mixture according to the manual and cell loading should be done in the absence of direct strong lighting. • 6. Remove assay plate from the humidified 37° C./5% CO2 incubator. Add 8 μl of 6× Substrate Mixture from Step 5 to each well. Cover the plate to protect it from light and evaporation. Incubate at room temperature for 4 hours. • 7. Reading an Assay Plate using the following filter selections:
• 8. Data analysis: Use the assay plate layout to identify the location of the Cell-free wells. These control wells are used for background subtraction. Determine the average emission from the Cell-free wells at both 460 nm (Average Blue Background) and 530 nm(Average Green Background). Subtract the Average Blue Background (data collected at 460 nm) from all of the blue emission data. Subtract the Average Green background (data collected at 530 nm) from all of the green emission data. Calculate the Blue/Green Emission Ratio for each well, by dividing the background-subtracted blue emission values by the background-subtracted green emission values.
Instead of Step 1 to Step 3, the following Step a to Step d can also be performed. The subsequent steps are the same as Method 2, after Step 4 (Method 1). • a. Plate Cells: 32 μL/well of HeLa/T-REx™ NICD CSL-bla cells at 10^3 cells/well complete medium into 384-well plate. • b. Prepare 10× compounds in assay medium. • c. Add 4 μL compounds or 1% DMSO in assay medium to the cells. • d. Add 4 μL 10×Doxycycline in Assay Medium to the treated wells, and 4 μL Assay Medium to the Untreated and cell free control wells.
The results are shown in Table 13 (Table 13-1 to Table 13-2).

[1] = Method 2 (40 nL of 1000× compound added to plate with Echo)
[2] = Method 1 (10× compound prepared in assay medium, added to plated cells)

Compound | inhibition at 10 µM [1] [%] | inhibition at 10 µM [2] [%]
CCCCCOC(=O)N1O[C@H](CC(C)C)C(=O)N2C1CN([C@@H](Cc1ccc(O)cc1)C(=O)NCCCC(C)C)C(=O)[C@@H]2Cc1ccc(O)cc1 (stereo partly drawn) [Compound I-100, pentyl (3R,6S)-6-(4-hydroxybenzyl)-8-((S)-3-(4-hydroxyphenyl)-1-((4-methylpentyl)amino)-1-oxopropan-2-yl)-3-isobutyl-4,7-dioxohexahydropyrazino [2,1-c][1,2,4]oxadiazine-1(6H)-carboxylate] | 63.8 | 
CC[C@H](C)CN1CC2N(C(=O)OCC3CCCCC3)O[C@H](CC(C)C)C(=O)N2[C@@H](CCCCN)C1=O (stereo partly drawn) [Compound I-31, (3R,6S)-cyclohexylmethyl 6-(4-aminobutyl)-3-isobutyl-8-((S)-2-methylbutyl)-4,7-dioxohexahydropyrazino[2,1-c][1,2,4]oxadiazine-1(6H)-carboxylate] | 67.1 | 
CC(C)[C@H]1C(=O)N(CCc2cccc3ccccc23)CC2N(C(=O)OCc3ccccc3)O[C@H](Cc3ccc(O)cc3)C(=O)N21 (stereo partly drawn) [Compound I-44, (3R,6S)-benzyl 3-(4-hydroxybenzyl)-6-isopropyl-8-(2-(naphthalen-1-yl)ethyl)-4,7-dioxohexahydropyrazino[2,1-c][1,2,4]oxadiazine-1(6H)-carboxylate] | 63.1 | 
COC(=O)N1O[C@H](CC2CCCCC2)C(=O)N2C1CN(CCc1cccc3ccccc13)C(=O)[C@@H]2CCCCN (stereo partly drawn) [Compound I-42, (3R,6S)-methyl 6-(4-aminobutyl)-3-(cyclohexylmethyl)-8-(2-(naphthalen-1-yl)ethyl)-4,7-dioxohexahydropyrazino[2,1-c][1,2,4]oxadiazine-1(6H)-carboxylate] | 95 | 
CC(C)CCCNC(=O)[C@H](CC(C)C)N1CC2N(C(=O)OCCc3ccc(O)cc3)O[C@H](Cc3ccccc3)C(=O)N2[C@@H](Cc2ccc(O)cc2)C1=O (stereo partly drawn) [Compound I-104, 4-hydroxyphenethyl (3R,6S)-3-benzyl-6-(4-hydroxybenzyl)-8-((S)-4-methyl-1-((4-methylpentyl)amino)-1-oxopentan-2-yl)-4,7-dioxohexahydropyrazino[2,1-c][1,2,4]oxadiazine-1(6H)-carboxylate] | 70.2 | 
CC(C)C[C@H]1ON(CCCC2CCN(C(=O)c3ccc(C(=O)c4ccccc4)cc3)CC2)C2CN(C3CCN(C)CC3)C(=O)[C@H](CC(C)C)N2C1=O (stereo partly drawn) [Compound I-148, (3R,6S)-1-(3-(1-(4-benzoylbenzoyl)piperidin-4-yl)propyl)-3,6-diisobutyl-8-(1-methylpiperidin-4-yl)tetrahydropyrazino[2,1-c][1,2,4]oxadiazine-4,7(3H,6H)-dione] | 76.6 | 
Cc1ccc(S(=O)(=O)N2CCC(CCCN3O[C@H](CC(C)C)C(=O)N4C3CN(C3CCN(C)CC3)C(=O)[C@@H]4CC(C)C)CC2)cc1 (stereo partly drawn) [Compound I-149, (3R,6S)-3,6-diisobutyl-8-(1-methylpiperidin-4-yl)-1-(3-(1-tosylpiperidin-4-yl)propyl)tetrahydropyrazino [2,1-c][1,2,4]oxadiazine-4,7(3H,6H)-dione] | 114 | 
CC(C)C[C@@H](C(=O)NCCc1ccccc1)N1CC2N(C(=O)OCCc3ccccc3)O[C@H](Cc3ccc(O)cc3)C(=O)N2[C@@H](Cc2ccc(O)cc2)C1=O (stereo partly drawn) [Compound I-115, phenethyl (3R,6S)-3,6-bis(4-hydroxybenzyl)-8-((S)-4-methyl-1-oxo-1-(phenethylamino)pentan-2-yl)-4,7-dioxohexahydropyrazino[2,1-c][1,2,4]oxadiazine-1(6H)-carboxylate] | 51.1 | 
CCCC[C@@H](C(=O)NCCCC(C)C)N1CC2N(C(=O)OCCc3ccc(O)cc3)O[C@H](CC(C)C)C(=O)N2[C@@H](Cc2ccc(O)cc2)C1=O (stereo partly drawn) [Compound I-101, 4-hydroxyphenethyl (3R,6S)-6-(4-hydroxybenzyl)-3-isobutyl-8-((S)-1-((4-methylpentyl)amino)-1-oxohexan-2-yl)-4,7-dioxohexahydropyrazino[2,1-c][1,2,4]oxadiazine-1(6H)-carboxylate] | 54.4 | 
CCCC[C@H]1ON(C(=O)OCc2cccc3ccccc23)C2CN(C(C)C)C(=O)[C@H](Cc3ccc(O)cc3)N2C1=O (stereo partly drawn) [Compound I-12, (3R,6S)-naphthalen-1-ylmethyl 3-butyl-6-(4-hydroxybenzyl)-8-isopropyl-4,7-dioxohexahydropyrazino[2,1-c][1,2,4]oxadiazine-1(6H)-carboxylate] |  | 71
CC(C)C[C@H]1ON(C(=O)OCCc2ccccc2)C2CN([C@@H](Cc3ccc(O)cc3)C(=O)NCCc3ccccc3)C(=O)[C@H](Cc3ccc(O)cc3)N2C1=O (stereo partly drawn) [Compound I-102, phenethyl (3R,6S)-6-(4-hydroxybenzyl)-8-((S)-3-(4-hydroxyphenyl)-1-oxo-1-(phenethylamino)propan-2-yl)-3-isobutyl-4,7-dioxohexahydropyrazino[2,1-c][1,2,4]oxadiazine-1(6H)-carboxylate] | 67.3 | 
CCCCCCOC(=O)N1O[C@@H](C(C)C)C(=O)N2C1CN(Cc1ccccc1)C(=O)[C@@H]2Cc1ccc(O)cc1 (stereo partly drawn) [Compound I-3, (3S,6S)-hexyl 8-benzyl-6-(4-hydroxybenzyl)-3-isopropyl-4,7-dioxohexahydropyrazino[2,1-c][1,2,4]oxadiazine-1(6H)-carboxylate] |  | 53.6
CC(C)CCCNC(=O)[C@H](Cc1ccc(O)cc1)N1CC2N(C(=O)OCCc3ccc(O)cc3)O[C@H](Cc3ccccc3)C(=O)N2[C@@H](Cc2ccc(O)cc2)C1=O (stereo partly drawn) [Compound I-110, 4-hydroxyphenethyl (3R,6S)-3-benzyl-6-(4-hydroxybenzyl)-8-((S)-3-(4-hydroxyphenyl)-1-((4-methylpentyl)amino)-1-oxopropan-2-yl)-4,7-dioxohexahydropyrazino[2,1-c][1,2,4]oxadiazine-1(6H)-carboxylate] | 75.2 | 
CCCCCCOC(=O)N1O[C@H](CCCC)C(=O)N2C1CN(CCC(C)C)C(=O)[C@@H]2Cc1ccc(O)cc1 (stereo partly drawn) [Compound I-2, (3R,6S)-hexyl 3-butyl-6-(4-hydroxybenzyl)-8-isopentyl-4,7-dioxohexahydropyrazino[2,1-c][1,2,4]oxadiazine-1(6H)-carboxylate] |  | 53.5
COC(=O)N1O[C@H](Cc2ccc(O)cc2)C(=O)N2C1CN(CCc1cccc3ccccc13)C(=O)[C@@H]2C (stereo partly drawn) [Compound I-43, (3R,6S)-methyl 3-(4-hydroxybenzyl)-6-methyl-8-(2-(naphthalen-1-yl)ethyl)-4,7-dioxohexahydropyrazino[2,1-c][1,2,4]oxadiazine-1(6H)-carboxylate] | 52.9 | 
CCCC[C@@H](C(=O)NCCCC(C)C)N1CC2N(C(=O)OCCc3ccc(O)cc3)O[C@H](Cc3ccccc3)C(=O)N2[C@@H](Cc2ccc(O)cc2)C1=O (stereo partly drawn) [Compound I-112, 4-hydroxyphenethyl (3R,6S)-3-benzyl-6-(4-hydroxybenzyl)-8-((S)-1-((4-methylpentyl)amino)-1-oxohexan-2-yl)-4,7-dioxohexahydropyrazino[2,1-c][1,2,4]oxadiazine-1(6H)-carboxylate] | 54.2 | 
CC(C)CCN1CC2N(C(=O)OCc3cccc4ccccc34)O[C@H](CC(N)=O)C(=O)N2[C@@H](Cc2ccccc2)C1=O (stereo partly drawn) [Compound I-21, (3R,6S)-naphthalen-1-ylmethyl 3-(2-amino-2-oxoethyl)-6-benzyl-8-isopentyl-4,7-dioxohexahydropyrazino[2,1-c][1,2,4]oxadiazine-1(6H)-carboxylate] |  | 60
CC(C)C[C@H]1ON(C(=O)OCc2ccccc2)C2CN(C3CCN(C)CC3)C(=O)[C@H](CC3CCCCC3)N2C1=O (stereo partly drawn) [Compound I-140, benzyl (3R,6S)-6-(cyclohexylmethyl)-3-isobutyl-8-(1-methylpiperidin-4-yl)-4,7-dioxohexahydropyrazino [2,1-c][1,2,4]oxadiazine-1(6H)-carboxylate] | 60.9 | 
CC(C)OC(=O)N1O[C@H](CC2CCCCC2)C(=O)N2C1CN(CCc1ccccc1)C(=O)[C@@H]2CCCCN (stereo partly drawn) [Compound I-37, (3R,6S)-isopropyl 6-(4-aminobutyl)-3-(cyclohexylmethyl)-4,7-dioxo-8-phenethylhexahydropyrazino [2,1-c][1,2,4]oxadiazine-1(6H)-carboxylate] | 87.3 | 
